Measured values reported in PubChem BioAssay (NCI).
Several values for one entry are separate records, joined by “and”; a condition that tells them apart may be missing. Equal values may be shown once.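 The compound was tested at five concentrations on cells cultured in 96-well plates, with a 48-hour exposure period. Abbreviation: GI50, concentration required for 50% inhibition of growth. The concentration for full growth arrest is given as TGI.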

Tests used:
Assay in all cases: growth of human tumour cells (NCI), 48 h
NCI-H460 lung = tested on: NCI-H460 lung
SK-MEL-5 melanoma = tested on: SK-MEL-5 melanoma
M14 melanoma = tested on: M14 melanoma
HCT-15 colon = tested on: HCT-15 colon
HOP-62 NSCLC = tested on: HOP-62 NSCLC
OVCAR-8 ovarian = tested on: OVCAR-8 ovarian
SR leukemia = tested on: SR leukemia
MDA-MB-435 = tested on: MDA-MB-435
IGROV1 ovarian = tested on: IGROV1 ovarian
CCRF-CEM leukemia = tested on: CCRF-CEM leukemia

Row | SMILES | GI50 (NCI-H460 lung) | TGI (NCI-H460 lung) [µM] | GI50 (SK-MEL-5 melanoma) | TGI (SK-MEL-5 melanoma) | GI50 (M14 melanoma) | TGI (M14 melanoma) [µM] | GI50 (HCT-15 colon) | TGI (HCT-15 colon) [µM] | GI50 (HOP-62 NSCLC) | TGI (HOP-62 NSCLC) | GI50 (OVCAR-8 ovarian) | TGI (OVCAR-8 ovarian) | GI50 (SR leukemia) | TGI (SR leukemia) [µM] | GI50 (MDA-MB-435) | TGI (MDA-MB-435) | GI50 (IGROV1 ovarian) [µM] | TGI (IGROV1 ovarian) [µM] | GI50 (CCRF-CEM leukemia) | TGI (CCRF-CEM leukemia) [µM]
1 | CCOC(=O)C#Cc1c(C(=O)OCC)nnn1Cc1ccc([N+](=O)[O-])cc1 | 11.1 µM | 28 | 8.86 µM | 21 µM | 2.97 µM | 9.13 | 1.66 µM | 3.29 | 17.3 µM | 31.6 µM | 3.72 µM | 11.1 µM | 1.15 µM | 4.4 | 3.35 µM | 12.4 µM | 11.9 | 28.5 | 1.26 µM | 5
2 | CCn1c(-c2nonc2N)nc2c(C#CC(C)(C)O)ncc(OC[C@H]3CCCNC3)c21 | 10.6 µM | 28.5 | 14.3 µM | 31.2 µM | 14.8 µM | 37.7 | 20.3 µM | > 100 | 23.3 µM | 72.7 µM | 16.1 µM | 82.2 µM | 12 µM | 41.8 | 13.7 µM | 30.3 µM | 0.0876 | 23.2 | 0.335 µM | 47.2
3 | NS(=O)(=O)NCCNc1nonc1C(=Nc1ccc(F)c(Br)c1)NO | 35.9 µM | > 100 | 31.9 µM | > 100 µM | 28.1 µM | > 100 | 39.4 µM | > 100 | > 100 µM | > 100 µM | 56.5 µM | > 100 µM | 30.2 µM | > 100 | 32 µM | > 100 µM | 52.3 | > 100 | 49.8 µM | > 100
4 | Oc1ccc(C2c3ccccc3Oc3ccccc32)c2cccnc12 | 0.47 µM | 5.1 | 1.62 µM | 8.66 µM | 1.34 µM | 4.21 | 0.468 µM | > 100 | 0.979 µM | > 100 µM | 1.6 µM | > 100 µM | 1.97 µM | > 100 | 3.07 µM | > 100 µM | 1.62 | > 100 | 0.738 µM | > 100
5 | CC(=O)O[C@H]1[C@@H]2OC(=O)C(CSc3ccccc3)[C@@H]2C[C@H]2O[C@]2(C)CC/C=C(\C)CCC[C@@H]1C (some centres undefined) | 4.4 µM | 19.3 | 2.57 µM | 8.65 µM | 2.13 µM | 5.37 | 1.95 µM | 6.52 | 9.29 µM | 32.5 µM | 3.77 µM | 29.5 µM | 1.69 µM | > 20.1 | 2.12 µM | 5.9 µM | 3.05 | 9.38 | 2.17 µM | > 21.1
6 | Cc1ccc(NS(=O)(=O)c2cccc(C#N)c2)c2[nH]cc(C#N)c12 | 18.1 µM and 22.6 µM | > 100 | 15.6 µM and 17 µM | 33.5 µM and 43.3 µM | 20 µM and 16.3 µM | > 100 | 6.14 µM and 14.1 µM | > 100 | 20.1 µM and 29.8 µM | 96.4 µM and > 100 µM | 19.1 µM and 15.8 µM | > 100 µM and 69.3 µM | 18.2 µM and 6.8 µM | > 100 | 12.3 µM and 8.31 µM | 55.1 µM and 67.4 µM |  | > 100 | 11.9 µM and 14.3 µM | > 100
7 | O=C(N/N=C/c1ccc(O)cc1O)c1cccc(Nc2ccnc(C(F)(F)F)c2)c1 | 3.06 µM | 11.3 | 0.626 µM | 11.1 µM | 0.925 µM | 8.5 | 2.2 µM | 51.7 | 0.709 µM | 24.7 µM | 0.716 µM | 32.9 µM | 0.29 µM | 6.34 | 0.861 µM | 20.8 µM | 1.28 | 27.7 | 0.257 µM | 2.14
8 | CN(CC(=O)Nc1nc2ccccc2[nH]1)S(=O)(=O)c1ccc(Cl)cc1 | > 100 µM | > 100 | > 100 µM | > 100 µM | > 100 µM | > 100 | > 100 µM | > 100 | > 100 µM | > 100 µM | 95.2 µM | > 100 µM | > 100 µM | > 100 | > 100 µM | > 100 µM | 21 | > 100 | > 100 µM | > 100
9 | CC(CN(C)C)Oc1ccccc1NC1=C(Cl)C(=O)C(Nc2ccccc2OC(C)CN(C)C)=C(Cl)C1=O (centres undefined) | 1.3 µM | 2.9 | 1.56 µM | 2.94 µM | 1.38 µM | 2.83 | 0.176 µM | 0.375 | 1.67 µM | 3.07 µM | 0.337 µM | 1.71 µM | 0.265 µM | 1.17 | 0.753 µM | 2.15 µM | 0.58 | 1.88 | 0.265 µM | 0.882
10 | CCN(CC)C(=S)SCN1C(=O)c2ccccc2S1(=O)=O | 0.928 µM | > 100 | 6.67 µM | > 100 µM | 20.9 µM | > 82.5 | 50.9 µM | > 100 | 39.3 µM | > 100 µM | > 57.9 µM | > 100 µM | < 0.01 µM | 27.7 | 60.9 µM | > 100 µM | 55.2 | > 100 | < 0.01 µM | 0.016
11 | C/C(O)=C(\C#N)C(=O)Nc1ccc(C(F)(F)F)cc1 | 8.92 µM | > 100 | 15.9 µM | > 100 µM | 52.5 µM | > 100 | 5.96 µM | > 100 | 77.9 µM | > 100 µM | 13.5 µM | > 100 µM | > 100 µM | > 100 | 37.1 µM | > 100 µM | 28.4 | > 100 | 18.5 µM | > 100
12 | O=[N+]([O-])c1cc(C(F)(F)F)ccc1Sc1ccc(C(F)(F)F)cc1[N+](=O)[O-] | 19 µM | > 100 | 16.7 µM | > 100 µM | 7.23 µM | > 100 | 6.84 µM | > 100 | > 100 µM | > 100 µM | 6.1 µM | > 100 µM | 3.65 µM | > 100 | 3.04 µM | > 100 µM | 17.1 | > 100 | 3.47 µM | > 100
13 | COc1cc(C2=N/C(=C/c3cccs3)C(=O)O2)cc(OC)c1OC |  | > 100 |  | > 100 µM |  | > 100 |  | > 100 |  | > 100 µM |  | > 100 µM |  | > 100 |  | > 100 µM |  | > 100 |  | > 100
